Results reported in the NIST ThermoML archive (doi:10.1021/je034208m).

Experiment: xn = mol fraction of the nth substance listed
Details: 101.33 kPa, Liquid; for speed of sound: Sing-around technique in a fixed-path interferometer

CCCC(C)O (stereo not drawn) [pentan-2-ol] + CCCCCCCC
Details	mass density, 293.15 K [kg/m3]	mass density, 298.15 K [kg/m3]	mass density, 303.15 K [kg/m3]	speed of sound, 293.15 K [m/s]	speed of sound, 298.15 K [m/s]	speed of sound, 303.15 K [m/s]	viscosity, 293.15 K [mPa·s]	viscosity, 298.15 K [mPa·s]	viscosity, 303.15 K [mPa·s]
x1 = 0.0509	705.58	701.48	697.35	1190	1170	1149	0.548	0.517	0.486
x1 = 0.105	709.15	705.03	700.87	1189	1169	1148	0.566	0.53	0.498
x1 = 0.1853	714.98	710.84	706.65	1188	1168	1147	0.598	0.56	0.525
x1 = 0.2976	723.78	719.63	715.43	1188	1168	1147	0.658	0.613	0.572
x1 = 0.3968	732.4	728.24	724.03	1189	1169	1149	0.732	0.678	0.629
x1 = 0.4953	741.91	737.73	733.5	1192	1172	1153	0.841	0.77	0.709
x1 = 0.5965	752.73	748.53	744.29	1198	1178	1158	1.008	0.915	0.826
x1 = 0.6993	764.97	760.76	756.5	1207	1187	1167	1.296	1.147	1.022
x1 = 0.7971	777.92	773.74	769.48	1218	1199	1179	1.727	1.495	1.307
x1 = 0.8997	792.82	788.69	784.49	1233	1214	1195	2.531	2.133	1.821
x1 = 0.9509	800.83	796.75	792.59	1242	1223	1204	3.19	2.635	2.215
x1 = 1	809.04	805.01	800.9	1250	1232	1214	4.001	3.273	2.708
